Assay results from PubChem BioAssay AID1963965 (Molecular Pharmacology Branch, DTP, NCI, 2024).

Tested on: 996289-038-R-J1-PDC spheroid viability
Assay: Anticancer human tumor 996289-038-R-J1-PDC patient-derived colon adenocarcinoma cell line growth inhibition [PI3K]
Settings: spheroids with HUVEC and MSC; for IC50: curve of first compound; for viability, T/C: stronger effect = lower value
Procedure, shortened: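 We assembled tumor spheroids that included a stromal compartment of HUVEC and MSCs, then exposed them to targeted agents alone and together with PI3K pathway inhibitors. Concentration series descended by half-log from clinically achievable Cmax levels. Viability served as the endpoint.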

[1] = second compound 0.00316 µM, first compound 0.0316 µM
[2] = second compound 0.00316 µM, first compound 0.1 µM
[3] = second compound 0.01 µM, first compound 0.0316 µM
[4] = second compound 0.01 µM, first compound 0.1 µM
[5] = second compound 0.0316 µM, first compound 0.0316 µM
[6] = second compound 0.0316 µM, first compound 0.1 µM
[7] = second compound 0.1 µM, first compound 0.0316 µM
[8] = second compound 0.1 µM, first compound 0.1 µM
[9] = second compound 0.316 µM, first compound 0.0316 µM
[10] = second compound 0.316 µM, first compound 0.1 µM
[11] = second compound 1 µM, first compound 0.0316 µM
[12] = second compound 1 µM, first compound 0.1 µM
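Note: spheroids exposed to compounds for seven days before viability read.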
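Throughout, for viability, T/C: luminescence used as a proxy for viable cell amount; percent viability relative to DMSO vehicle control as 100%.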

CC(=O)c1c(C)c2cnc(Nc3ccc(N4CCNCC4)cn3)nc2n(C2CCCC2)c1=O + COc1c(OCCCN2CCOCC2)ccc2c3n(c(=NC(=O)c4cnc(N)nc4)nc12)CCN3
IC50 (second compound 0.00316 µM): > 0.1 µM
IC50 (second compound 0.01 µM): > 0.1 µM
IC50 (second compound 0.0316 µM): > 0.1 µM
IC50 (second compound 0.1 µM): > 0.1 µM
IC50 (second compound 0.316 µM): < 0.000316 µM
IC50 (second compound 1 µM): < 0.000316 µM
viability, T/C (second compound 0.00316 µM, first compound 0.000316 µM): 99.3%
viability, T/C (second compound 0.00316 µM, first compound 0.001 µM): 96.9%
viability, T/C (second compound 0.00316 µM, first compound 0.00316 µM): 104%
viability, T/C (second compound 0.00316 µM, first compound 0.01 µM): 94.2%
viability, T/C [1]: 97.4%
viability, T/C [2]: 83.1%
viability, T/C (second compound 0.01 µM, first compound 0.000316 µM): 89.1%
viability, T/C (second compound 0.01 µM, first compound 0.001 µM): 89.9%
viability, T/C (second compound 0.01 µM, first compound 0.00316 µM): 80.2%
viability, T/C (second compound 0.01 µM, first compound 0.01 µM): 90.8%
viability, T/C [3]: 94.2%
viability, T/C [4]: 73%
viability, T/C (second compound 0.0316 µM, first compound 0.000316 µM): 66.1%
viability, T/C (second compound 0.0316 µM, first compound 0.001 µM): 81.4%
viability, T/C (second compound 0.0316 µM, first compound 0.00316 µM): 80.5%
viability, T/C (second compound 0.0316 µM, first compound 0.01 µM): 81.8%
viability, T/C [5]: 73.7%
viability, T/C [6]: 70.6%
viability, T/C (second compound 0.1 µM, first compound 0.000316 µM): 62.7%
viability, T/C (second compound 0.1 µM, first compound 0.001 µM): 56%
viability, T/C (second compound 0.1 µM, first compound 0.00316 µM): 59.4%
viability, T/C (second compound 0.1 µM, first compound 0.01 µM): 55%
viability, T/C [7]: 57.5%
viability, T/C [8]: 49.8%
viability, T/C (second compound 0.316 µM, first compound 0.000316 µM): 34.4%
viability, T/C (second compound 0.316 µM, first compound 0.001 µM): 31.6%
viability, T/C (second compound 0.316 µM, first compound 0.00316 µM): 39.1%
viability, T/C (second compound 0.316 µM, first compound 0.01 µM): 31.3%
viability, T/C [9]: 37.8%
viability, T/C [10]: 29.4%
viability, T/C (second compound 1 µM, first compound 0.000316 µM): 19.1%
viability, T/C (second compound 1 µM, first compound 0.001 µM): 22%
viability, T/C (second compound 1 µM, first compound 0.00316 µM): 21.5%
viability, T/C (second compound 1 µM, first compound 0.01 µM): 16.6%
viability, T/C [11]: 17.7%
viability, T/C [12]: 15.9%

CC(Cn1ccc(-c2ccc(C#N)c(Cl)c2)n1)NC(=O)c1cc(C(C)O)[nH]n1 (centres undefined) + CC(Nc1ccc2c(c1)OCCn1cc(N3C(=O)OCC3C(F)F)nc1-2)C(N)=O
IC50 (second compound 0.00316 µM): > 10 µM
IC50 (second compound 0.01 µM): > 10 µM
IC50 (second compound 0.0316 µM): > 10 µM
IC50 (second compound 0.1 µM): > 10 µM
IC50 (second compound 0.316 µM): > 10 µM
IC50 (second compound 1 µM): > 10 µM
viability, T/C [1]: 86%
viability, T/C [2]: 108%
viability, T/C (second compound 0.00316 µM, first compound 0.316 µM): 98.5%
viability, T/C (second compound 0.00316 µM, first compound 1 µM): 112%
viability, T/C (second compound 0.00316 µM, first compound 3.16 µM): 96%
viability, T/C (second compound 0.00316 µM, first compound 10 µM): 97.4%
viability, T/C [3]: 92.6%
viability, T/C [4]: 98.4%
viability, T/C (second compound 0.01 µM, first compound 0.316 µM): 110%
viability, T/C (second compound 0.01 µM, first compound 1 µM): 100%
viability, T/C (second compound 0.01 µM, first compound 3.16 µM): 96%
viability, T/C (second compound 0.01 µM, first compound 10 µM): 87.1%
viability, T/C [5]: 96.8%
viability, T/C [6]: 101%
viability, T/C (second compound 0.0316 µM, first compound 0.316 µM): 89.7%
viability, T/C (second compound 0.0316 µM, first compound 1 µM): 93.7%
viability, T/C (second compound 0.0316 µM, first compound 3.16 µM): 93.8%
viability, T/C (second compound 0.0316 µM, first compound 10 µM): 79.2%
viability, T/C [7]: 78%
viability, T/C [8]: 79.4%
viability, T/C (second compound 0.1 µM, first compound 0.316 µM): 89.1%
viability, T/C (second compound 0.1 µM, first compound 1 µM): 82.7%
viability, T/C (second compound 0.1 µM, first compound 3.16 µM): 97.1%
viability, T/C (second compound 0.1 µM, first compound 10 µM): 76.7%
viability, T/C [9]: 70.2%
viability, T/C [10]: 73.2%
viability, T/C (second compound 0.316 µM, first compound 0.316 µM): 66.7%
viability, T/C (second compound 0.316 µM, first compound 1 µM): 73.5%
viability, T/C (second compound 0.316 µM, first compound 3.16 µM): 66.7%
viability, T/C (second compound 0.316 µM, first compound 10 µM): 72%
viability, T/C [11]: 55%
viability, T/C [12]: 55.1%
viability, T/C (second compound 1 µM, first compound 0.316 µM): 68.9%
viability, T/C (second compound 1 µM, first compound 1 µM): 63.1%
viability, T/C (second compound 1 µM, first compound 3.16 µM): 58%
viability, T/C (second compound 1 µM, first compound 10 µM): 58.6%
